Patent publication US20170253601A1, “Substituted Pyrrolidine Compounds” (EPIZYME, INC., priority 2014, published 2017)

Biological target: T1, human SMYD3 (Homo sapiens, UniProt Q9H7B4)
T1 construct: Expressed full-length human His-tagged SMYD3 protein was purified from cell paste; His6 (cleaved yes); TEV and SUMO cleavage sites (cleaved yes); made in house; host or cells: E. coli BL21 codonplus RIL
T1 sequence (Q9H7B4 1-428): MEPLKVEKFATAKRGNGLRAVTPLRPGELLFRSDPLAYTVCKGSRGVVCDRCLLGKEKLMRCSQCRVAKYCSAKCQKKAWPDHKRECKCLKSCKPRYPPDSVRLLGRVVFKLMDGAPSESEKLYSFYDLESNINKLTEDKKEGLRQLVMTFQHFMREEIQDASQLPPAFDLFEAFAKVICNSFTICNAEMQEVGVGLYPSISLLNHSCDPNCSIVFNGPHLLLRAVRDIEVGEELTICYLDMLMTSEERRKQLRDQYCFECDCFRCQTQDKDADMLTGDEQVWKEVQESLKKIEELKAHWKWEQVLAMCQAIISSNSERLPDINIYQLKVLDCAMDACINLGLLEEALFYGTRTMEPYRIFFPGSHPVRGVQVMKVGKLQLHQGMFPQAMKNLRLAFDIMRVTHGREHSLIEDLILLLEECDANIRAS
Test: SMYD3 Biochemical Assay (3H-SAM, MEKK2 protein substrate, SPA)
Conditions: Table 1; average of n = 1 to n = 50; read-out: SMYD3 Biochem IC50
Excerpt: S-adenosylmethionine (SAM), S-adenosylhomocysteine (SAH), Tris, Tween20, dimethylsulfoxide (DMSO), bovine skin gelatin (BSG), and Tris(2-carboxyethyl)phosphine hydrochloride solution (TCEP) were purchased from Sigma-Aldrich at the highest level of purity possible. ^3H-SAM was purchase from American Radiolabeled Chemicals with a specific activity of 80 Ci/mmol. 384-well opaque white OptiPlates and SPA beads (Perkin Elmer, catalog # RPNQ0013) were purchased from PerkinElmer.
N-terminally GST-tagged MEKK2 (MAP3K2) protein corresponding to reference sequence AAF63496.3 was purchased from Life Technologies (catalog # PV4010). This protein was expressed in High Five insect cells and purified to >85% purity. Protein identity was confirmed by MS/MS analysis after proteolytic digestion. The protein sequence used was:
Full-length human SMYD3 isoform 1 (BAB86333) was inserted into a modified pET21b plasmid containing a His6 tag and TEV and SUMO cleavage sites. Because two common variants of SMYD3 exist in the population, site directed mutagenesis was subsequently performed to change amino acid 13 from an asparagine to a lysine, resulting in plasmid pEPZ533. A lysine at position 13 conforms to the more commonly occurring sequence (NP_001161212).
E. coli (BL21 codonplus RIL strain, Stratagene) were transformed with plasmid pEPZ553 by mixing competent cells and plasmid DNA and incubating on ice for 30 minutes followed by heat shock at 42° C. for 1 minute and cooling on ice for 2 minutes. Transformed cells were grown and selected on LB agar with 100 μg/mL ampicillin and 17 μg/mL chloramphenicol at 37° C. overnight. A single clone was used to inoculate 200 mL of LB medium with 100 μg/mL ampicillin and 17 μg/mL chloramphenicol and incubated at 37° C. on an orbital shaker at 180 rpm. Once in log growth, the culture was diluted 1:100 into 2 L of LB medium and grown until OD600 was about 0.3 after which the culture was incubated at 15° C. and 160 rpm. Once OD600 reached about 0.4, IPTG was added to a final concentration of 0.1 mM and the cells were grown overnight at 15° C. and 160 rpm. Cells were harvested by centrifugation at 8000 rpm, for 4 minutes at 4° C. and stored at −80° C. for purification.
Expressed full-length human His-tagged SMYD3 protein was purified from cell paste by Nickel affinity chromatography after equilibration of the resin with Buffer A (25 mM Tris, 200 mM NaCl, 5% glycerol, 5 mM β-mercaptoethanol, pH7.8). The column was washed with Buffer B (Buffer A plus 20 mM imidazole) and His-tagged SMYD3 was eluted with Buffer C (Buffer A plus 300 mM imidazole). The His tag, TEV and SUMO cleavage sites were removed generating native SMYD3 by addition of ULP1 protein at a ratio of 1:200 (ULP1:SMYD3). Imidazole was removed by dialysis overnight in Buffer A. The dialyzed solution was applied to a second Nickel column and the native SMYD3 protein was collected from the column flow-through. The flow-through was dialyzed in Buffer D (25 mM Tris, 5% glycerol, 5 mM β-mercaptoethanol, 50 mM NaCl, pH7.8) and ULP1 was removed using a Q sepharose fast flow column. SMYD3 was eluted in Buffer A and further purified using an S200 size-exclusion column equilibrated with Buffer A. SMYD3 was concentrated to 2 mg/mL with a final purity of 89%.
The assays were all performed in a buffer consisting of 25 mM Tris-Cl pH 8.0, 1 mM TCEP, 0.005% BSG, and 0.005% Tween 20, prepared on the day of use. Compounds in 100% DMSO (1 ul) were spotted into a 384-well white opaque OptiPlate using a Bravo automated liquid handling platform outfitted with a 384-channel head (Agilent Technologies). DMSO (1 ul) was added to Columns 11, 12, 23, 24, rows A-H for the maximum signal control and 1 ul of SAH, a known product and inhibitor of SMYD3, was added to columns 11, 12, 23, 24, rows I-P for the minimum signal control. A cocktail (40 ul) containing the SMYD3 enzyme was added by Multidrop Combi (Thermo-Fisher). […]

Row | SMILES | IC50 [µM]
1 | CN1C[C@H](NC(=O)c2cc(C3CC3)on2)[C@H](c2ccccc2)C1 (racemic) [compound 17, (±)-cis-5-cyclopropyl-N-((1-methyl-4-phenylpyrrolidin-3-yl)isoxazole-3-carboxamide] | 56.2
2 | CN1C[C@H](NC(=O)c2cc(C3CC3)on2)[C@@H](c2ccccc2)C1 (racemic) [compound 18, (±)-trans-5-cyclopropyl-N-(1-methyl-4-phenylpyrrolidin-3-yl)isoxazole-3-carboxamide] | 50.4
3 | C[C@@H]1C[C@H](NC(=O)c2cc(C3CC3)on2)C(=O)N1c1cnn(C)c1 (racemic) [compound 19, (±)-cis-5-cyclopropyl-N-(5-methyl-1-(1-methyl-1H-pyrazol-4-yl)-2-oxopyrrolidin-3-yl)isoxazole-3-carboxamide] | > 200
4 | C[C@H]1C[C@H](NC(=O)c2cc(C3CC3)on2)C(=O)N1c1cnn(C)c1 (racemic) [compound 20, (±)-trans 5-cyclopropyl-N-(5-methyl-1-(1-methyl-1H-pyrazol-4-yl)-2-oxopyrrolidin-3-yl)isoxazole-3-carboxamide] | > 200
5 | CC(=O)Nc1ccc(S(=O)(=O)N2CC[C@H](NC(=O)c3cc(C4CC4)on3)C2)cc1 [compound 1, (S)-N-(1-((4-acetamido-phenyl)sulfonyl)pyrrolidin-3-yl)-5-cyclopropyl-isoxazole-3-carboxamide] | > 100
6 | CC(=O)Nc1ccc(S(=O)(=O)N2CC[C@@H](NC(=O)c3cc(C4CC4)on3)C2)cc1 [compound 2, (R)-N-(1-((4-acetamido-phenyl)sulfonyl)pyrrolidin-3-yl)-5-cyclopropyl-isoxazole-3-carboxamide] | > 100
7 | O=C(N[C@H]1CCNC1)c1cc(C2CC2)on1 [compound 3, (S)-5-cyclopropyl-N-(pyrrolidin-3-yl)isoxazole-3-carboxamide] | 80.3
8 | O=C(N[C@@H]1CCNC1)c1cc(C2CC2)on1 [compound 4, (R)-5-cyclopropyl-N-(pyrrolidin-3-yl)isoxazole-3-carboxamide] | 83.7
9 | CN1CCC(NC(=O)c2cc(C3CC3)on2)C1c1ccccc1 (stereo not shown) [compound 5, 5-cyclopropyl-N-(1-methyl-2-phenyl-pyrrolidin-3-yl)isoxazole-3-carboxamide] | 55.1
10 | Cc1cc(N2CCC(NC(=O)c3cc(C4CC4)on3)C2=O)n(C)n1 (stereo not shown) [compound 6, 5-cyclopropyl-N-(1-(1,3-dimethyl-1H-pyrazol-5-yl)-2-oxopyrrolidin-3-yl)isoxazole-3-carboxamide] | > 200
11 | CN1CCC(NC(=O)c2cc(C3CC3)on2)C1c1ccc(Cl)c(F)c1 (stereo not shown) [compound 7, N-(2-(4-chloro-3-fluorophenyl)-1-methylpyrrolidin-3-yl)-5-cyclo-propylisoxazole-3-carboxamide] | 51.5
12 | O=C(NC1CCN(C2CC2)C1c1ccc(F)c(F)c1)c1cc(C2CC2)on1 (stereo not shown) [compound 8, 5-cyclopropyl-N-(1-cyclopropyl-2-(3,4-difluoro-phenyl)pyrrolidin-3-yl)isoxazole-3-carboxamide] | 12.4
13 | CN1CCC(NC(=O)c2cc(C3CC3)on2)C1c1ccc(F)c(F)c1 (stereo not shown) [compound 9, 5-cyclopropyl-N-(2-(3,4-difluorophenyl)-1-methylpyrrolidin-3-yl)isoxazole-3-carboxamide] | 67.2
14 | CC1CC(NC(=O)c2cc(C3CC3)on2)CN1c1ccccc1 (stereo not shown) [compound 10, 5-cyclopropyl-N-(5-methyl-1-phenylpyrrolidin-3-yl)isoxazole-3-carboxamide] | 53.5
15 | CC1CC(NC(=O)c2cc(C3CC3)on2)C(=O)N1c1ccccc1 (stereo not shown) [compound 11, 5-cyclopropyl-N-(5-methyl-2-oxo-1-phenylpyrrolidin-3-yl)isoxazole-3-carboxamide] | 78.1
16 | CC(C)N1CCC(NC(=O)c2cc(C3CC3)on2)C1c1ccc(F)c(F)c1 (stereo not shown) [compound 12, 5-cyclopropyl-N-(2-(3,4-difluorophenyl)-1-isopropylpyrrolidin-3-yl)isoxazole-3-carboxamide] | 58.6
17 | CN1CCC(NC(=O)c2cc(C3CC3)on2)C1c1ccc(F)cc1 (stereo not shown) [compound 13, 5-cyclopropyl-N-(2-(4-fluorophenyl)-1-methylpyrrolidin-3-yl)isoxazole-3-carboxamide] | 51.9
18 | CN1C(=O)CC(NC(=O)c2cc(C3CC3)on2)C1c1ccc(F)cc1 (stereo not shown) [compound 14, 5-cyclopropyl-N-(2-(4-fluorophenyl)-1-methyl-5-oxopyrrolidin-3-yl)isoxazole-3-carboxamide] | 58.5
19 | Cn1ccc(N2CCC(NC(=O)c3cc(C4CC4)on3)C2=O)n1 (stereo not shown) [compound 15, 5-cyclopropyl-N-(1-(1-methyl-1H-pyrazol-3-yl)-2-oxopyrrolidin-3-yl)isoxazole-3-carboxamide] | 158
20 | COc1cccc(C2C(NC(=O)c3cc(C4CC4)on3)CCN2C2CC2)c1 (stereo not shown) [compound 16, 5-cyclopropyl-N-(1-cyclopropyl-2-(3-methoxy-phenyl)pyrrolidin-3-yl)isoxazole-3-carboxamide] | 77.4
21 | CC1CC(NC(=O)c2cc(C3CC3)on2)CN1Cc1ccccc1 (stereo not shown) [compound 21, N-(1-benzyl-5-methylpyrrolidin-3-yl)-5-cyclopropyl-isoxazole-3-carboxamide] | 54.1
22 | CC1CC(NC(=O)c2cc(C3CC3)on2)CN1C1CC1 (stereo not shown) [compound 22, 5-cyclopropyl-N-(1-cyclopropyl-5-methylpyrrolidin-3-yl)isoxazole-3-carboxamide] | 47.1
23 | CC1CN(C2CC2)CC1NC(=O)c1cc(C2CC2)on1 (stereo not shown) [compound 23, 5-cyclopropyl-N-(1-cyclopropyl-4-methylpyrrolidin-3-yl)isoxazole-3-carboxamide] | 48.5
24 | CC(c1ccccc1)N1CCC(NC(=O)c2cc(C3CC3)on2)C1 (stereo not shown) [compound 24, 5-cyclopropyl-N-(1-(1-phenylethyl)pyrrolidin-3-yl)isoxazole-3-carboxamide] | 38.4
25 | O=C(NC1CC(=O)N(c2ccccc2)C1)c1cc(C2CC2)on1 (stereo not shown) [compound 25, 5-cyclopropyl-N-(5-oxo-1-phenylpyrrolidin-3-yl)isoxazole-3-carboxamide] | 98.8
26 | O=C(NC1CC(=O)N(Cc2ccccc2)C1)c1cc(C2CC2)on1 (stereo not shown) [compound 26, N-(1-benzyl-5-oxopyrrolidin-3-yl)-5-cyclopropylisoxazole-3-carboxamide] | 88.4
27 | O=C(NC1CCN(Cc2ccccc2)C1=O)c1cc(C2CC2)on1 (stereo not shown) [compound 27, N-(1-benzyl-2-oxopyrrolidin-3-yl)-5-cyclopropylisoxazole-3-carboxamide] | > 200
28 | O=C(NC1CCN(c2ccccc2)C1=O)c1cc(C2CC2)on1 (stereo not shown) [compound 28, 5-cyclopropyl-N-(2-oxo-1-phenyl-pyrrolidin-3-yl)isoxazole-3-carboxamide] | 94.2
